Assay results reported in patent US7816386B2, “Cinnamic, phenylpropiolic and phenylpropanoic acid derivatives useful as anti-tumor agents” (Sigma-Tau Industrie Farmaceutiche Riunite S.p.A., priority 2005, dated 2010).
Structures can show the parent of a compound that is named as a salt. Where two headings read alike, the source gives them in different places.

Experiments:
[1] = test system: NB4 human promyelocytic leukaemia; assay: Cytotoxicity on NB4 tumour cells (sulphorodamine B); type: cell-based
Method: (§1) To test the effects of the compounds on cell growth, NB4 human promyelocytic leukaemia, NCI-H460 non-small cell carcinoma cells and HCT-116 human colon carcinoma cells were used. NB4 and NCI-H460 tumour cells were grown RPMI 1640 containing 10% fetal bovine serum (GIBCO), whereas HCT-116 tumour cells were grown in McCoy's 5A containing 10% fetal bovine serum (GIBCO).
(§2) Tumour cells were seeded in 96-well tissue culture plates (Corning) at approximately 10% confluence and were allowed to attach and recover for at least 24 h. […] The plates were incubated for 24 h at 37° C. At the end of the treatment, for NB4 tumour cells in suspension, the procedure was performed as follows: medium culture was removed by centrifugation of the plates at 1600×g for 10 min and the surnatant was removed. 250 μl PBS were added, then the plates were centrifuged at 1600×g for 10 min, the surnatant was removed. 200 μl/well of medium culture RPMI 1640 containing 10% FCS were added and the plates were incubated at 37° C. for other 48 h. The plates were centrifuged again at 1600×g for 10 min, the medium culture was removed and 200 μl PBS and 50 μl of cold 80% TCA were added. The plates were incubated on ice for at least 1 h. TCA was removed, the plates were washed 3 times for immersion in distilled-water and dried on paper and at 40° C. for 5 min. Then 200 μl of 0.4% sulphorodamine B in 1% acetic acid were added. The plates were incubated at room temperature for other 30 min. Sulphorodamine B was removed, the plates were washed for immersion in 1% acetic acid for 3 times, then they were dried on paper and at 40° C. for 5 min. Then 200 μl Tris 10 mM were added, the plates were kept under stirring for 20 min. The survival cell was determined as optical density by a Multiskan spectrofluorimeter at 540 nm. For the tumour cells in adhesion (NCI-H460 and HCT-116), the procedure was as above mentioned, except that at the end of the treatment, the plates were washed by remotion of the surnatant and addition of PBS 3 times without centrifugation. Also the last day of the assay, the surnatant was removed without centrifugation.
(§3) The amount of cells killed was calculated as the percentage decrease in sulphorodamine B binding compared with control cultures.

[2] = test system: NCI-H460 non-small cell carcinoma cells; assay: Cytotoxicity on NCI-H460 tumour cells (sulphorodamine B); type: cell-based, human; conditions: for IC50: 24 h treatment, then other 48 h in drug-free medium, sulphorodamine B; for cytotoxic effect on survival of NCI-H460 tumour cells (in words): comparison among the compounds
Method: as §1, §2, §3

[3] = test system: HCT-116 human colon carcinoma cells; assay: Cytotoxicity on HCT-116 tumour cells (sulphorodamine B); type: cell-based; conditions: read-out: IC50 ± SD, HCT-116 (concentration which inhibits the 50% of cell survival), 24 h treatment, then other 48 h in drug-free medium
Method: as §1, §2, §3

[4] = Homo sapiens, read-out: IC50 ± SD, NB4 (concentration which inhibits the 50% of cell survival), NB4 tumour cells, 24 h treatment, then other 48 h in drug-free medium
[5] = read-out: IC50 ± SD, NB4 (concentration which inhibits the 50% of cell survival), NB4 tumour cells, 24 h treatment, then other 48 h in drug-free medium
[6] = Homo sapiens, NCI-H460, read-out: IC50 ± SD, NCI-H460 (concentration which inhibits the 50% of cell survival), NCI-H460 tumour cells

SMILES: O=C(/C=C/c1ccc(C=NNC(=O)c2ccc(Cl)cc2)cc1)NO [ST2888, (2E)-N-hydroxy-3-(4-{[(4-chlorobenzoyl)hydrazono]-methyl}phenyl)acrylamide]
- IC50 [1, 4]: 600 to 800 nM
- IC50 [1, 5]: 800 ± 20 nM
- IC50 [2, 6]: 3400 ± 300 nM
- IC50 ([3]; Homo sapiens): 1800 ± 100 nM

SMILES: O=C(O)/C=C/c1ccc(C=NOCc2ccccc2)cc1 [ST3076, (2E)-3-(4-{[(benzyloxy)imino]methyl}phenyl)acrylic acid]
- IC50 [1, 4]: > 20000 nM
- IC50 ([3]; Homo sapiens): > 20000 nM

SMILES: O=C(/C=C/c1ccc(C=NOCc2ccccc2)cc1)NO [ST2840, (2E)-3-(4-{[(benzyloxy)imino]methyl}phenyl)-N-hydroxyacrylamide]
- IC50 [1, 4]: 600 to 800 nM
- IC50 [1, 5]: 600 ± 6 nM
- IC50 [2, 6]: 1600 ± 100 nM
- IC50 ([3]; Homo sapiens): 2800 ± 200 nM

SMILES: Nc1ccccc1NC(=O)/C=C/c1ccc(C=NOCCN2CCOCC2)cc1 [ST3573, (2E)-N-(2-Amino-phenyl)-3-{4-[(2-morpholin-4-yl-ethoxyimino)methyl]-phenyl}-acrylamide hydrochloride]
- IC50 [1, 4]: 8870 ± 600 nM
- IC50 [2, 6]: > 20000 nM
- IC50 ([3]; Homo sapiens): > 20000 nM

SMILES: O=C(O)/C=C/c1ccc(C=NOCc2ccc([N+](=O)[O-])cc2)cc1 [ST3075, (2E)-3-[4-({[(4-nitrobenzyl)oxy]imino}-methyl)phenyl]acrylic acid]
- IC50 [1, 4]: > 20000 nM
- IC50 [2, 6]: 21300 ± 3000 nM
- IC50 ([3]; Homo sapiens): > 20000 nM

SMILES: C=CCON=Cc1ccc(/C=C/C(=O)NO)cc1 [ST2984, (2E)-N-hydroxy-3-(4-{[(allyloxy)imino]methyl}phenyl)acrylamide]
- IC50 [1, 4]: 1400 to 2900 nM
- IC50 [1, 5]: 1400 ± 70 nM
- IC50 [2, 6]: 3200 ± 90 nM
- IC50 ([3]; Homo sapiens): 3500 ± 70 nM

SMILES: O=C(/C=C/c1ccc(C=NOCc2ccc([N+](=O)[O-])cc2)cc1)NO [ST2987, (2E)-N-hydroxy-3-[4-({[(4-nitrobenzyl)oxy]imino}-methyl)phenyl]acrylamide]
- IC50 [1, 4]: 600 to 800 nM
- IC50 [1, 5]: 800 ± 10 nM
- IC50 [2, 6]: 2600 ± 100 nM
- IC50 ([3]; Homo sapiens): 1200 ± 200 nM

SMILES: O=C(/C=C/c1ccc(C=NOCc2c(F)c(F)c(F)c(F)c2F)cc1)NO [ST2986, (2E)-N-hydroxy-3-[4-({[(pentafluorobenzyl)oxy]imino}-methyl)phenyl]-acryl-amide]
- IC50 [1, 5]: 700 ± 70 nM
- IC50 ([2]; read-out: IC50 ± SD, NCI-H460 (concentration which inhibits the 50% of cell survival), NCI-H460 tumour cells): 1600 ± 70 nM
- IC50 [3]: 2400 ± 100 nM

SMILES: O=C(/C=C/c1ccc(C=NOCCN2CCOCC2)cc1)NO [ST3050, (2E)-N-hydroxy-3-{4-[(2-morpholin-4-ylethoxyimino)methyl]-phenyl}-acryl-amide]
- IC50 [1, 4]: 1400 to 2900 nM
- IC50 [1, 5]: 1700 ± 200 nM
- IC50 [2, 6]: 2900 ± 400 nM
- IC50 ([3]; Homo sapiens): 1800 ± 100 nM

SMILES: O=C(/C=C/c1ccc2[nH]ccc2c1)NO [ST2880, (2E)-N-hydroxy-3-(1H-indol-5-yl)acrylamide]
- IC50 [1, 4]: 1400 to 2900 nM
- IC50 [1, 5]: 1800 ± 20 nM
- IC50 [2, 6]: 5900 ± 500 nM
- cytotoxic effect on survival of NCI-H460 tumour cells (in words) ([2]; NCI-H460 tumour cells): minor cytotoxic effect
- IC50 ([3]; Homo sapiens): 2700 ± 300 nM

SMILES: O=C(/C=C/c1ccc(C=NO)cc1)NO [ST2983, (2E)-N-hydroxy-3-{4-[(hydroxyimino)methyl]phenyl}acrylamide]
- IC50 [2, 6]: 6300 ± 400 nM
- cytotoxic effect on survival of NCI-H460 tumour cells (in words) ([2]; NCI-H460 tumour cells): minor cytotoxic effect
- IC50 ([3]; Homo sapiens): 3500 ± 300 nM

SMILES: O=C(/C=C/c1ccc(C=NOc2ccccc2)cc1)NO [ST2985, (2E)-N-hydroxy-3-{4-[(phenoxyimino)methyl]phenyl}acrylamide]
- IC50 [1, 4]: 1400 to 2900 nM
- IC50 [1, 5]: 2700 ± 90 nM
- IC50 [2, 6]: 5100 ± 300 nM
- cytotoxic effect on survival of NCI-H460 tumour cells (in words) ([2]; NCI-H460 tumour cells): minor cytotoxic effect
- IC50 ([3]; Homo sapiens): 3700 ± 400 nM

SMILES: Cl.O=C(/C=C/c1cccc(C=NOCCN2CCOCC2)c1)NO [ST3576, (2E)-N-hydroxy-3-{3-[(2-morpholin-4-ylethoxyimino)methyl]-phenyl}-acryl-amide hydrochloride]
- IC50 [1, 4]: 1400 to 2900 nM
- IC50 ([1]; read-out: IC50 ± SD, NB4 (concentration which inhibits the 50% of cell survival), NB4 tumour cells, 24 h treatment, then other 48 h in drug-free medium, hydrochloride): 1890 ± 80 nM
- IC50 [2, 6]: 6600 ± 800 nM
- cytotoxic effect on survival of NCI-H460 tumour cells (in words) ([2]; NCI-H460 tumour cells): minor cytotoxic effect
- IC50 ([3]; Homo sapiens): 4000 ± 500 nM

SMILES: Nc1ccccc1NC(=O)/C=C/c1ccc(C=NOCc2ccc([N+](=O)[O-])cc2)cc1 [ST3070, (2E)-N-(2-aminophenyl)-3-[4-({[(4-nitrobenzyl)oxy]imino}-methyl)phenyl]-acrylamide]
- IC50 [1, 4]: > 20000 nM
- IC50 [2, 6]: 200000 nM
- IC50 ([3]; Homo sapiens): 33400 ± 3900 nM

SMILES: COC(=O)c1ccc(CON=Cc2ccc(/C=C/C(=O)NO)cc2)cc1 [ST3049, (2E)-N-hydroxy-3-[4-({[(4-methoxycarbonylbenzyl)oxy]imino}-methyl)phenyl]-acrylamide]
- IC50 [1, 4]: 600 to 800 nM
- IC50 [1, 5]: 800 ± 90 nM
- IC50 [2, 6]: 1700 ± 100 nM
- IC50 ([3]; Homo sapiens): 1700 ± 100 nM

SMILES: O=C(CCc1ccc(C=NOCc2ccc([N+](=O)[O-])cc2)cc1)NO [ST3330, N-hydroxy-3-[4-({[(4-nitrobenzyl)oxy]imino}methyl)phenyl]propanamide]
- IC50 [1, 4]: 950 ± 60 nM
- IC50 [2, 6]: 7700 ± 1000 nM
- cytotoxic effect on survival of NCI-H460 tumour cells (in words) ([2]; NCI-H460 tumour cells): minor cytotoxic effect
- IC50 ([3]; Homo sapiens): 3100 ± 100 nM
